The values below come from PubChem BioAssay AID1117348 (Cheminformatics & Chemogenomics Research Group (CCRG), …, 2015).

The source made the active and inactive calls. No rule for the calls is given here. A value given as a limit tells only on which side of the number the result lay.

The test system of the assay is HeLa cell cycle, increased S-phase population. Kind of assay: HeLa S-phase population increase, dose response, cell-based, IC50 (AID 1117348).
Turning to `NC(N)=NN=C(/C=C/c1ccc([N+](=O)[O-])o1)/C=C/c1ccc([N+](=O)[O-])o1`, the IC50 is > 10 µM (inactive).
Turning to `CC(CC1c2ccccc2CCc2ccccc21)CN(C)C` (configuration not stated), the IC50 is > 10 µM (inactive).
Take `CCN(CC)CCNC(=O)c1c(C)[nH]c(/C=C2\C(=O)Nc3ccc(F)cc32)c1C`: the IC50 was > 10 µM (inactive).
As for `[O-][n+]1ccccc1SSc1cccc[n+]1[O-]`, the IC50 was > 10 µM (inactive).
For `Cc1ccc(S(=O)(=O)NC(=O)NN2CC3CCCC3C2)cc1` (configuration not stated) the value was > 10 µM (inactive); for `Clc1ccc(Nc2nnc(Cc3ccncc3)c3ccccc23)cc1`, > 10 µM (inactive); for `CC(C)c1c(C(=O)Nc2ccccc2)c(-c2ccccc2)c(-c2ccc(F)cc2)n1CC[C@@H](O)C[C@@H](O)CC(=O)O`, > 10 µM (inactive).
For the compound `O=c1[nH]c(=O)n([C@H]2C[C@H](O)[C@@H](CO)O2)cc1I`, the IC50 is > 10 µM (inactive).
Regarding `C=CC(=O)Nc1cc2c(Nc3ccc(F)c(Cl)c3)ncnc2cc1OCCCN1CCOCC1`, the IC50 is > 10 µM (inactive).
For the compound `CCN1/C(=C/C=C/c2sc3ccccc3[n+]2CC)Sc2ccccc21`, the IC50 was > 10 µM (inactive).
As for `CC(=O)[C@]1(O)Cc2c(O)c3c(c(O)c2[C@@H](O[C@H]2C[C@H](N)[C@H](O)[C@H](C)O2)C1)C(=O)c1ccccc1C3=O`, the figure is > 10 µM (inactive).
Regarding `Clc1ccccc1C(c1ccccc1)(c1ccccc1)n1ccnc1`, the IC50 was > 10 µM (inactive).
For `Fc1ccc(C(OCCN2CCN(CCCc3ccccc3)CC2)c2ccc(F)cc2)cc1` the value was > 10 µM (inactive); for `CC[n+]1c(-c2ccccc2)c2cc(N)ccc2c2ccc(N)cc21`, > 10 µM (inactive); for `CC(C)(C)C(=O)OCOP(=O)(COCCn1cnc2c(N)ncnc21)OCOC(=O)C(C)(C)C`, 0.0608 µM.
As for `CCCCCCCCCCCCNCCNCCNCC(=O)O`, the figure is > 10 µM (inactive); as for `Cc1ccc2c(c1)c1c3n2CCNC3CCC1` (configuration not stated), > 10 µM (inactive).
As for `Cc1cc(CC(C)CC(C)(C)C)n(O)c(=O)c1` (configuration not stated), the IC50 is > 10 µM (inactive).
As for `CC(C)n1c(/C=C/[C@@H](O)C[C@@H](O)CC(=O)O)c(-c2ccc(F)cc2)c2ccccc21`, the figure is > 10 µM (inactive).
`COc1ccc2cc1Oc1ccc(cc1)C[C@H]1c3c(cc4c(c3Oc3cc5c(cc3OC)CCN(C)[C@@H]5C2)OCO4)CCN1C`: the IC50 was > 10 µM (inactive).
`CCN(CC)CCNc1ccc(CO)c2sc3ccccc3c(=O)c12`: the IC50 is > 10 µM (inactive).
For `CC(=O)N(O)CCCCCNC(=O)CCC(=O)N(O)CCCCCNC(=O)CCC(=O)N(O)CCCCCN` the value was > 10 µM (inactive); for `O=C(c1cc(O)c(O)c(O)c1)c1ccc(O)c(O)c1O`, > 10 µM (inactive).
As for `COc1cc(NC(C)CCCN)c2ncccc2c1` (configuration not stated), the figure is > 10 µM (inactive); as for `Nc1nc(=S)c2[nH]cnc2[nH]1`, > 10 µM (inactive); as for `CCOc1ccc2nc3cc(N)ccc3c(N)c2c1`, > 10 µM (inactive).
As for `COC(=O)Nc1nc2ccc(C(=O)C3CC3)cc2[nH]1`, the figure is > 10 µM (inactive); as for `CCC(COC(=O)c1cc(OC)c(OC)c(OC)c1)(c1ccccc1)N(C)C` (configuration not stated), > 10 µM (inactive).
`O=[N+]([O-])c1ccc(O)c2ncccc12`: the IC50 is > 10 µM (inactive).
As for `CCCCCCCCCCCC(=O)[O][Sn]([CH2]CCC)([CH2]CCC)[O]C(=O)CCCCCCCCCCC`, the figure is > 10 µM (inactive).
For `CC(C)=CCC/C(C)=C/CC/C(C)=C/C(=O)OCC(=O)[C@@]1(O)CC[C@H]2[C@@H]3CCC4=CC(=O)C=C[C@]4(C)[C@H]3[C@@H](O)C[C@@]21C` the value was > 10 µM (inactive).
As for `CC(C)=CCOc1ccc(/C=C/C(=O)c2ccc(OCC=C(C)C)cc2OCC(=O)O)cc1`, the figure is > 10 µM (inactive).
`CCN(CC)CCOc1ccccc1C(=O)CCc1ccccc1`: the IC50 was > 10 µM (inactive).
For `O=C1c2c(O)ccc(O)c2C(=O)c2c(NCCNCCO)ccc(NCCNCCO)c21` the value was > 10 µM (inactive); for `CCCCCCCCCCCCCCCC[n+]1ccccc1`, > 10 µM (inactive); for `O=C(CCBr)N1CCN(C(=O)CCBr)CC1`, > 10 µM (inactive).
On to `O=C1[C@H]2CCCC[C@H]2C(=O)N1CCCCN1CCN(c2nsc3ccccc23)CC1`, for which the IC50 was > 10 µM (inactive).
As for `C[C@@H]1C[C@H]2[C@@H]3CCC4=CC(=O)C=C[C@]4(C)[C@@]3(Cl)[C@@H](O)C[C@]2(C)[C@@]1(OC(=O)c1ccco1)C(=O)CCl`, the figure is > 10 µM (inactive); as for `Cc1cc(N)c2ccccc2[n+]1CCCCCCCCCC[n+]1c(C)cc(N)c2ccccc21`, > 10 µM (inactive); as for `O=Cc1ccc(O)c(O)c1O`, > 10 µM (inactive).
For `C1CN(P2(N3CC3)=NP(N3CC3)(N3CC3)=NP(N3CC3)(N3CC3)=N2)CCO1` (configuration not stated) the value was > 10 µM (inactive); for `CCCCc1ccc2nc(NC(=O)OC)[nH]c2c1`, > 10 µM (inactive); for `O=C(Nc1ccc(Br)cc1)c1cc(Br)cc(Br)c1O`, > 10 µM (inactive).
As to `COc1cc2c(c(OC)c1OC)-c1ccc(OC)c(=O)cc1[C@@H](NC(C)=O)CC2`, the IC50 was 0.1 µM (inactive).
As for `Cc1ccc(CCn2c3c(c4cc(Cl)ccc42)CN(C)CC3)cn1`, the figure is > 10 µM (inactive); as for `CN(C)c1ccc2nc3ccc(=[N+](C)C)cc-3sc2c1`, > 10 µM (inactive); as for `CCCCCCCCCCCCCC[N+](C)(C)C`, > 10 µM (inactive).
As for `CC(=O)Oc1ccccc1C(=O)Nc1ncc([N+](=O)[O-])s1`, the figure is > 10 µM (inactive); as for `O[C@@H](CNC[C@H](O)[C@H]1CCc2cc(F)ccc2O1)[C@@H]1CCc2cc(F)ccc2O1`, > 10 µM (inactive); as for `CCCCCCCCCCOCC(O)CN` (configuration not stated), > 10 µM (inactive).
For `CN(C)/N=N/c1nc[nH]c1C(N)=O` the value was > 10 µM (inactive).
In the case of `COc1ccc(-c2nc3ccc(C4=NNC(=O)CC4C)cc3[nH]2)cc1` (configuration not stated), the IC50 was > 10 µM (inactive).
For `O=C(Nc1ccc([N+](=O)[O-])cc1Cl)c1cc(Cl)ccc1O` the value was > 10 µM (inactive); for `CCc1oc2ccccc2c1C(=O)c1cc(Br)c(O)c(Br)c1`, > 10 µM (inactive); for `CCCCC(CC)CN=C(N)NC(N)=NCCCCCCN=C(N)NC(N)=NCC(CC)CCCC` (configuration not stated), > 10 µM (inactive).
For `Oc1c(Cl)cc(Cl)cc1Sc1cc(Cl)cc(Cl)c1O` the value was > 10 µM (inactive); for `Cc1ccc2nc(N)[nH]c(=O)c2c1Sc1ccncc1`, > 10 µM (inactive); for `Cc1cc(O)c2ccccc2c1O`, > 10 µM (inactive).
As to `CC(C)(C)C1CCC(CC2=C(O)c3ccccc3C(=O)C2=O)CC1` (configuration not stated), the IC50 was > 10 µM (inactive).
For `Cc1cc2c(C(C)C)c(O)c(O)c(C=O)c2c(O)c1-c1c(C)cc2c(C(C)C)c(O)c(O)c(C=O)c2c1O` the value was > 10 µM (inactive); for `Cc1ccc(Nc2nccc(N(C)c3ccc4c(C)n(C)nc4c3)n2)cc1S(N)(=O)=O`, > 10 µM (inactive); for `COc1cc(-c2ccc(=O)[nH]n2)ccc1OC(F)F`, > 10 µM (inactive).
Consider `CCCCCCCCCCCC[N+](C)(C)Cc1ccccc1`, for which the IC50 was > 10 µM (inactive).
As to `C[C@@]12C(=O)OC(=O)[C@]1(C)C1CCC2O1`, the IC50 is > 10 µM (inactive).
On to `O=[N+]([O-])c1ccc(Oc2ccc(N=C=S)cc2)cc1`, for which the IC50 is > 10 µM (inactive).
For `CC[C@]1(O)C[C@@H]2CN(CCc3c([nH]c4ccccc34)[C@@](C(=O)OC)(c3cc4c(cc3OC)N(C)[C@H]3[C@@](O)(C(=O)OC)[C@H](OC(C)=O)[C@]5(CC)C=CCN6CC[C@]43[C@@H]65)C2)C1` the value was > 10 µM (inactive); for `CCCCOC(=O)c1ccc(N)cc1`, > 10 µM (inactive); for `Cn1cnc([N+](=O)[O-])c1Sc1ncnc2nc[nH]c12`, > 10 µM (inactive).
Take `CC[C@H](C)C(=O)O[C@H]1C[C@@H](C)C=C2C=C[C@H](C)[C@H](CC[C@@H]3C[C@@H](O)CC(=O)O3)[C@H]21`: the IC50 was > 10 µM (inactive).
As to `CC[C@@]1(O)C(=O)OCc2c1cc1n(c2=O)Cc2cc3c(CN(C)C)c(O)ccc3nc2-1`, the IC50 was 0.082 µM.
As to `CCN(CC)CCOc1ccc(C(O)(Cc2ccc(Cl)cc2)c2ccc(C)cc2)cc1` (configuration not stated), the IC50 is > 10 µM (inactive).
In the case of `Nc1nc(F)nc2c1ncn2[C@@H]1O[C@H](CO)[C@@H](O)[C@@H]1O`, the IC50 was > 10 µM (inactive).
For `NCCCC[C@H](N[C@@H](CCc1ccccc1)C(=O)O)C(=O)N1CCC[C@H]1C(=O)O` the value was > 10 µM (inactive); for `COC(=O)Nc1nc2ccc(Sc3ccccc3)cc2[nH]1`, > 10 µM (inactive); for `CC(=O)O[C@@]12CO[C@@H]1C[C@H](O)[C@@]1(C)C(=O)[C@H](O)C3=C(C)[C@@H](OC(=O)[C@H](O)[C@@H](NC(=O)OC(C)(C)C)c4ccccc4)C[C@@](O)([C@@H](OC(=O)c4ccccc4)[C@H]21)C3(C)C`, > 10 µM (inactive).
For `Nc1ccc2cc3ccc(N)cc3nc2c1` the value was 3.44 µM; for `O=C(O)CN(CCN(CC(=O)O)CC(=O)O)CCN(CC(=O)O)CC(=O)O`, > 10 µM (inactive); for `CCCSc1ccc2nc(NC(=O)OC)[nH]c2c1`, > 10 µM (inactive).
For `CCCCC1C(=O)N(c2ccccc2)N(c2ccc(O)cc2)C1=O` (configuration not stated) the value was > 10 µM (inactive).
Regarding `CCCNCC(O)COc1ccccc1C(=O)CCc1ccccc1` (configuration not stated), the IC50 was > 10 µM (inactive).
For `COc1cccc2c1C(=O)c1c(O)c3c(c(O)c1C2=O)C[C@@](O)(C(C)=O)C[C@@H]3O[C@H]1C[C@H](N)[C@H](O)[C@H](C)O1`, the IC50 is 9.6 µM (inactive).
For `CCC(C)(C)C(=O)O[C@H]1C[C@@H](C)C=C2C=C[C@H](C)[C@H](CC[C@@H]3C[C@@H](O)CC(=O)O3)[C@H]21` the value was > 10 µM (inactive).

Usually IC50 stands for the concentration that inhibits the measured activity by half.
